In US20240190890A1, “MK2 INHIBITORS AND USES THEREOF” (Bristol-Myers Squibb Company, priority 2022, published 2024):

molecular target: p38a activated, mitogen-activated protein kinase-activated protein kinase 2 (MAPKAP-K2 or MK2) enzyme (Homo sapiens (Human), UniProt P49137); test: MK2 Omnia continuous-read kinase assay for compound potency; type: biochemical; conditions: [MK-2]=0.4 nM, [ATP]=10 μM, [ST3-Sox]=10 μM; room temperature
Summary of the method: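 Continuous Sox-peptide fluorescence read (ex360/em485) every 71 s over 2 h at room temperature. Reactions: 10 μM each of ATP (at apparent Km) and S/T3-Sox, 0.4 nM p38a-activated MK2, pH 7.5 Tris/MgCl2 buffer. Initial rates yield % inhibition and IC50; single-exponential kobs values yield apparent kinact/KI.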

Sequence of p38a activated, mitogen-activated protein kinase-activated protein kinase 2 (MAPKAP-K2 or MK2) enzyme (P49137 whole entry): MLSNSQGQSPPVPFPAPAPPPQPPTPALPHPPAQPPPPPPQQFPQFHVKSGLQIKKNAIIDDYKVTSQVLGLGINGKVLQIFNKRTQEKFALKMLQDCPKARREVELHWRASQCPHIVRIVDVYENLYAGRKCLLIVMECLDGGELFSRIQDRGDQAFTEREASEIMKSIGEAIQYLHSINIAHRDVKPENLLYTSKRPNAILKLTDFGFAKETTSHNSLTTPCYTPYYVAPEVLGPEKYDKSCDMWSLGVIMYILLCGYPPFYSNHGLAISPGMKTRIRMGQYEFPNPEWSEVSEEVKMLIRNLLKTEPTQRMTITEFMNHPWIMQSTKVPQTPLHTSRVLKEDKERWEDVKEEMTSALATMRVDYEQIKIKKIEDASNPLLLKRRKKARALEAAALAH

| Compound | IC50 [µM] |
| --- | --- |
| C[C@@H]1CNc2c(sc3ccc4nc(-c5nc(Cl)c(C(F)(F)F)cc5F)ccc4c23)C(=O)N1 [Example I-274, (R)-3-(6-chloro-3-fluoro-5-(trifluoromethyl)pyridin-2-yl)-10-methyl-9,10,11,12-tetrahydro-8H-[1,4]diazepino[5′,6′:4,5]thieno[3,2-f]quinolin-8-one] | 0.752 |
| C=Cc1cc(-c2ccc3c(ccc4sc5c(c43)NC[C@@H](C)NC5=O)n2)c(C(=O)OC)nn1 [Example I-137, methyl (R)-4-(10-methyl-8-oxo-9,10,11,12-tetrahydro-8H-[1,4]diazepino[5′,6′:4,5]thieno[3,2-f]quinolin-3-yl)-6-vinylpyridazine-3-carboxylate] | 0.003 |
| C=Cc1cc(-c2ccc3c(ccc4sc5c(c43)NC[C@@H](C)NC5=O)n2)nc(COCC)n1 [Example I-22, (R)-3-(2-(ethoxymethyl)-6-vinylpyrimidin-4-yl)-10-methyl-9,10,11,12-tetrahydro-8H-[1,4]diazepino[5′,6′:4,5]thieno[3,2-f]quinolin-8-one] | 0.002 |
| C#Cc1cc(-c2ccc3c(ccc4sc5c(c43)NC[C@@H](C)NC5=O)n2)cc(N2CCNCC2)n1 [Example I-176, (R)-3-(2-ethynyl-6-(piperazin-1-yl)pyridin-4-yl)-10-methyl-9,10,11,12-tetrahydro-8H-[1,4]diazepino[5′,6′:4,5]thieno[3,2-f]quinolin-8-one] | 0.07 |
| C[C@@H]1CNc2c(sc3ccc4nc(-c5nc(Cl)ncc5C(F)(F)F)ccc4c23)C(=O)N1 [Example I-4, (R)-3-(2-chloro-5-(trifluoromethyl)pyrimidin-4-yl)-10-methyl-9,10,11,12-tetrahydro-8H-[1,4]diazepino[5′,6′:4,5]thieno[3,2-f]quinolin-8-one] | 0.001 |
| C=Cc1nn(C)cc1-c1ccc2c(ccc3sc4c(c32)NC[C@@H](C)NC4=O)n1 [Example I-230, (R)-10-methyl-3-(1-methyl-3-vinyl-1H-pyrazol-4-yl)-9,10,11,12-tetrahydro-8H-[1,4]diazepino[5′,6′:4,5]thieno[3,2-f]quinolin-8-one] | 0.044 |
| C=C(C)c1ncc(COCC)c(-c2ccc3c(ccc4sc5c(c43)NC[C@@H](C)NC5=O)n2)n1 [Example I-50, (R)-3-(5-(ethoxymethyl)-2-(prop-1-en-2-yl)pyrimidin-4-yl)-10-methyl-9,10,11,12-tetrahydro-8H-[1,4]diazepino[5′,6′:4,5]thieno[3,2-f]quinolin-8-one] | 1 |
| C=Cc1ccn(-c2ccc3c(ccc4sc5c(c43)NC[C@@H](C)NC5=O)n2)n1 [Example I-147, (R)-10-methyl-3-(3-vinyl-1H-pyrazol-1-yl)-9,10,11,12-tetrahydro-8H-[1,4]diazepino[5′,6′:4,5]thieno[3,2-f]quinolin-8-one] | 0.104 |
| C=Cc1cc(-c2ccc3c(ccc4sc5c(c43)NC[C@@H](C)NC5=O)n2)c(C)cn1 [Example I-109, (R)-10-methyl-3-(5-methyl-2-vinylpyridin-4-yl)-9,10,11,12-tetrahydro-8H-[1,4]diazepino[5′,6′:4,5]thieno[3,2-f]quinolin-8-one] | 0.004 |
| C=Cc1cc(-c2ccc3c(ccc4sc5c(c43)NC[C@@H](C)NC5=O)n2)c(N(C)C)nn1 [Example I-129, (R)-3-(3-(dimethylamino)-6-vinylpyridazin-4-yl)-10-methyl-9,10,11,12-tetrahydro-8H-[1,4]diazepino[5′,6′:4,5]thieno[3,2-f]quinolin-8-one] | 0.106 |
| C=Cc1nncn1-c1ccc2c(ccc3sc4c(c32)NC[C@@H](C)NC4=O)n1 [Example I-203, (R)-10-methyl-3-(3-vinyl-4H-1,2,4-triazol-4-yl)-9,10,11,12-tetrahydro-8H-[1,4]diazepino[5′,6′:4,5]thieno[3,2-f]quinolin-8-one] | 0.009 |
| C#Cc1cc(-c2ccc3c(ccc4sc5c(c43)NC[C@@H](C)NC5=O)n2)cc(CN2C[C@@H](C)O[C@@H](C)C2)n1 [Example I-186, (R)-3-(2-(((2S,6R)-2,6-dimethylmorpholino)methyl)-6-ethynylpyridin-4-yl)-10-methyl-9,10,11,12-tetrahydro-8H-[1,4]diazepino[5′,6′:4,5]thieno[3,2-f]quinolin-8-one] | 0.026 |
| C=Cc1cc(-c2ccc3c(ccc4sc5c(c43)NC[C@@H](C)NC5=O)n2)c(C#N)cn1 [Example I-161, (R)-4-(10-methyl-8-oxo-9,10,11,12-tetrahydro-8H-[1,4]diazepino[5′,6′:4,5]thieno[3,2-f]quinolin-3-yl)-6-vinylnicotinonitrile] | 0.002 |
| C=Cc1nccn1-c1ccc2c(ccc3sc4c(c32)NC[C@@H](C)NC4=O)n1 [Example I-164, (R)-10-methyl-3-(2-vinyl-1H-imidazol-1-yl)-9,10,11,12-tetrahydro-8H-[1,4]diazepino[5′,6′:4,5]thieno[3,2-f]quinolin-8-one] | 0.001 |
| C#Cc1nccc(-c2ccc3c(ccc4sc5c(c43)NC[C@@H](C)NC5=O)n2)c1F [Example I-218, (R)-3-(2-ethynyl-3-fluoropyridin-4-yl)-10-methyl-9,10,11,12-tetrahydro-8H-[1,4]diazepino[5′,6′:4,5]thieno[3,2-f]quinolin-8-one] | 0.079 |
| C=Cc1cncc(-c2ccc3c(ccc4sc5c(c43)NC[C@@H](C)NC5=O)n2)n1 [Example I-163, (R)-10-methyl-3-(6-vinylpyrazin-2-yl)-9,10,11,12-tetrahydro-8H-[1,4]diazepino[5′,6′:4,5]thieno[3,2-f]quinolin-8-one] | 0.109 |
| C[C@@H]1CNc2c(sc3ccc4nc(-c5cc(Cl)nc(Cl)n5)ccc4c23)C(=O)N1 [Example I-58, (R)-3-(2,6-dichloropyrimidin-4-yl)-10-methyl-9,10,11,12-tetrahydro-8H-[1,4]diazepino[5′,6′:4,5]thieno[3,2-f]quinolin-8-one] | 0.016 |
| C[C@@H]1CNc2c(sc3ccc4nc(-c5cc(Cl)nc(COC6CCNCC6)n5)ccc4c23)C(=O)N1 [Example I-14, (R)-3-(6-chloro-2-((piperidin-4-yloxy)methyl)pyrimidin-4-yl)-10-methyl-9,10,11,12-tetrahydro-8H-[1,4]diazepino[5′,6′:4,5]thieno[3,2-f]quinolin-8-one] | 0.012 |
| C#Cc1ncc(CO)c(-c2ccc3c(ccc4sc5c(c43)NC[C@@H](C)NC5=O)n2)n1 [Example I-79, (R)-3-(2-ethynyl-5-(hydroxymethyl)pyrimidin-4-yl)-10-methyl-9,10,11,12-tetrahydro-8H-[1,4]diazepino[5′,6′:4,5]thieno[3,2-f]quinolin-8-one] | 0.568 |
| C[C@@H]1CNc2c(sc3ccc4nc(-c5cc(Cl)nc(C6CCN(C)CC6)c5)ccc4c23)C(=O)N1 [Example I-103, (R)-3-(2-chloro-6-(1-methylpiperidin-4-yl)pyridin-4-yl)-10-methyl-9,10,11,12-tetrahydro-8H-[1,4]diazepino[5′,6′:4,5]thieno[3,2-f]quinolin-8-one] | 0.046 |
| C=Cc1nc(C)nn1-c1ccc2c(ccc3sc4c(c32)NC[C@@H](C)NC4=O)n1 [Example I-224, (R)-10-methyl-3-(3-methyl-5-vinyl-1H-1,2,4-triazol-1-yl)-9,10,11,12-tetrahydro-8H-[1,4]diazepino[5′,6′:4,5]thieno[3,2-f]quinolin-8-one] | 0.002 |
| C#Cc1cc(-c2ccc3c(ccc4sc5c(c43)NC[C@@H](C)NC5=O)n2)ccn1 [Example I-57, (R)-3-(2-ethynylpyridin-4-yl)-10-methyl-9,10,11,12-tetrahydro-8H-[1,4]diazepino[5′,6′:4,5]thieno[3,2-f]quinolin-8-one] | 0.117 |
| C[C@@H]1CNc2c(sc3ccc4nc(-c5cc(Cl)nc(COC6CCN(C)CC6)n5)ccc4c23)C(=O)N1 [Example I-15, (R)-3-(6-chloro-2-(((1-methylpiperidin-4-yl)oxy)methyl)pyrimidin-4-yl)-10-methyl-9,10,11,12-tetrahydro-8H-[1,4]diazepino[5′,6′:4,5]thieno[3,2-f]quinolin-8-one] | 0.01 |
| C#Cc1cc(-c2ccc3c(ccc4sc5c(c43)NC[C@@H](C)NC5=O)n2)cc(CN2CCC(F)(F)CC2)n1 [Example I-124, (R)-3-(2-((4,4-difluoropiperidin-1-yl)methyl)-6-ethynylpyridin-4-yl)-10-methyl-9,10,11,12-tetrahydro-8H-[1,4]diazepino[5′,6′:4,5]thieno[3,2-f]quinolin-8-one] | 0.125 |
| C=Cc1nccc(-c2ccc3c(ccc4sc5c(c43)NC[C@@H](C)NC5=O)n2)c1F [Example I-217, (R)-3-(3-fluoro-2-vinylpyridin-4-yl)-10-methyl-9,10,11,12-tetrahydro-8H-[1,4]diazepino[5′,6′:4,5]thieno[3,2-f]quinolin-8-one] | 0.078 |
| C=Cc1cc(-c2ccc3c(ccc4sc5c(c43)NC[C@@H](C)NC5=O)n2)cc(CN2CCOCC2)n1 [Example I-140, (R)-10-methyl-3-(2-(morpholinomethyl)-6-vinylpyridin-4-yl)-9,10,11,12-tetrahydro-8H-[1,4]diazepino[5′,6′:4,5]thieno[3,2-f]quinolin-8-one] | 0.014 |
| C=Cc1ncc(COC2(C)COC2)c(-c2ccc3c(ccc4sc5c(c43)NC[C@@H](C)NC5=O)n2)n1 [Example I-29, (R)-10-methyl-3-(5-(((3-methyloxetan-3-yl)oxy)methyl)-2-vinylpyrimidin-4-yl)-9,10,11,12-tetrahydro-8H-[1,4]diazepino[5′,6′:4,5]thieno[3,2-f]quinolin-8-one] | 0.02 |
| C=Cc1nc(-c2ccc3c(ccc4sc5c(c43)NC[C@@H](C)NC5=O)n2)nn1C [Example I-208, (R)-10-methyl-3-(1-methyl-5-vinyl-1H-1,2,4-triazol-3-yl)-9,10,11,12-tetrahydro-8H-[1,4]diazepino[5′,6′:4,5]thieno[3,2-f]quinolin-8-one] | 0.285 |
